# Experiments:
# Notch1 = assay: Inhibition of Constitutive Notch Signaling; type: cell-based
# ACC83 cells = assay: Boyden chamber invasion assay; type: cell-based, Human; settings: 10 nM for 14 days, 24 h transwell
# Procedure: FIG. 11C. Effect of Compound (1) monotherapy on cell invasion in ACC83 cell line. ACC83 cells were treated with either 10 nM Compound (1) or DMSO (control) for 14 days. Cells were then placed transwell chambers and after 24 h, the membranes were stained with crystal violet. Cells that had migrated through the membrane were photographed (left panel) and counted. The average number of ACC83 cells per field that migrated through the membrane are shown in a bar plot (right panel).
# Methods: A wound healing assay was carried out to assess migration potential of ACC83 and ACC112 cells. Cells were cultured in triplicate in 6-well plates (1×10^6 cells per well) containing culture inserts (Ibidi). On reaching 90% confluence, the inserts were removed, and cells were cultured for 12 hr. Gap area in individual wells was determined using ImageJ. The gap area percentage was calculated as the gap area at 12 hr relative to the gap area at 0 hr. A Boyden chamber assay was carried out to assess the invasion potential of ACC83 and ACC112 cells. […] After 24 h incubation, the cells in the upper chamber were carefully removed with cotton swab, and the cells that had invaded through Matrigel were stained with 1DiffQuick, photographed at 40× magnification and quantified across three random fields.
# T-ALL tumors = assay: Tumor growth in mice harboring T-ALL tumors; type: in vivo
# Procedure: FIG. 7A. Inhibition of tumor growth with 6 mg/kg Compound (1). Mice harboring T-ALL tumors were administered Compound (1) 6 mg/kg, QDx3 per week, Days 15-17; 22-24; 29-31, Nirogacestat 150mg/kg, QD Days 15-28, or vehicle using the protocol described, and tumor volume was measured 15-60 days post-baseline.
# FIG. 7B. Inhibition of tumor growth with 4 mg/kg Compound (1). […]
# ACC83 cell line = assay: Alamar Blue cell viability assay; type: cell-based, Human; settings: 10 nM, 14 days, vs DMSO
# Procedure: (§1) FIG. 10A. Effect of Compound (1) monotherapy on cell viability in ACC cell lines. ACC83 and ACC112 cell lines were treated with 10 nM Compound (1) or DMSO (control) for 14 days, and cell viability relative to day 0 was determined using an Alamar Blue assay on days 7, 11 and 14. **p<0.01; ***p<0.001.
# (§2) Methods: The naturally immortalized sublingual gland derived Human ACC cell line ACC83 and the Human HPV-transformed submaxillary gland derived cell line ACC112 were treated with Compound (1) at 10 nM concentration or DMSO (control) for 14 days. ACC83 cells were cultured in RPMI 1640 medium supplemented with 10% FBS, 10,000 u/ml penicillin-streptomycin and 1 ml L-glutamine. ACC112 cell line was additionally supplemented with 20 ng/ml epidermal growth factor, 400 ng/ml hydrocortisone and 5 μg/ml insulin. Cell viability relative to day 0 was determined using an Alamar Blue assay on days 7, 11 and 14. Cell lines were stained with NICD1 (Cell Signaling, 4147S, 1:200), HES1 (Abcam, ab71559, 1:400), HEY1 (Millipore, AB5714, 1:200), and HESS (Novus Biologicals, NBP241305, 1:200) antibodies using iView DAB detection and the Ventana BenchMark XT staining system (Roche). Area and intensity of diaminobenzidine (DAB) signal was quantified using IHC Profiler color deconvolution plugin within ImageJ software.
# ACC112 cell line = assay: Alamar Blue cell viability assay; type: cell-based, Human; settings: 10 nM, 14 days, vs DMSO
# Procedure: as §1, §2
# Notch3 = assay: Inhibition of Constitutive Notch Signaling; type: cell-based
# Notch4 = assay: Inhibition of Constitutive Notch Signaling; type: cell-based
# [1] = test system: NOTCH signaling (NICD1, HES1, HESS, HEY1) in ACC112 cells; assay: NICD1 and NOTCH downstream targets by IHC and western blot; type: cell-based, Human; settings: 10 nM
# Procedure: (§3) FIG. 10B. Effect of Compound (1) monotherapy on NICD1 in ACC cell lines. NICD1 immunohistochemical staining of ACC83 (left) or ACC112 (right) cells treated with either 10 nM Compound (1) or DMSO (control) for 14 days.
# (§4) FIG. 10C. Effect of Compound (1) monotherapy on NOTCH downstream targets in ACC cell lines. Cell lysates were collected at day 14 from Compound (1)- or DMSO (control)-treated ACC83 and ACC112 cells and analyzed by western blot for the expression of NICD1, HES1, HESS and HEY1 proteins, with GAPDH used a loading control.
# as §2
# [2] = test system: NOTCH signaling (NICD1, HES1, HESS, HEY1) in ACC83 cells; assay: as above; type: cell-based, Human; settings: 10 nM
# Procedure: as §3, §4, §2
# [3] = Phase 2 trial: Compound (1) plasma concentration / PK; type: in vivo, human
# Procedure: FIGS. 5A-5B. Compound (1) plasma concentration over time since last dose^a The concentration of Compound (1) in plasma in subjects on days 0-7 after being administered 4 mg Compound (1) on week 1 (FIG. 5A) and on week 4 (FIG. 5B). Dots represent individual subject data; lines represent geometric means. Orange lines: Phase 2 data. Green lines: Phase 1 data.
# FIG. 6. Effect of CYP inhibitors and substrates on Compound (1) PK^b. Effect of concomitant administration of CYP inhibitors or substrates on the PK of Compound (1) in subjects administered 4 mg Compound (1) once per week. Box plots represent median, 25/75 percentile, and 2/98 percentile; groups with >1 subject represented are shown. 2C19; 2D6 (weak), 1A2, 3A4, 2D6
# Starting on Cycle 1, Day 1, eligible subjects enrolled in the study received Compound (1), 4 mg intravenously (IV) weekly (qwk), on Days 1, 8, 15, and 22 of each 28-day cycle until disease progression, unacceptable toxicity, or consent withdrawal. Paired tumor biopsies were collected at screening (fresh or archival within 5 years) and upon confirmation of disease progression (provided medically safe and not contraindicated). Samples were sent to a central vendor for NGS analysis. Formalin-fixed paraffin embedded (FFPE) slides were evaluated by IHC for NICDI stain.
compound,measurement,setting,value
"CN1C(=O)[C@@H](NC(=O)[C@H](CCC(F)(F)F)[C@H](CCC(F)(F)F)C(N)=O)N=C(c2ccccc2)c2ccccc21 [Compound (1), (2R,3S)—N-((3S)-1-methyl-2-oxo-5-phenyl-2,3-dihydro-1H-1,4-benzodiazepin-3-yl)-2,3-bi s(3,3,3-trifluoropropyl)succinamide]",IC50,Notch1,1.6 nM
same,cell invasion,ACC83 cells,substantially decreased the invasion
same,tumor volume,"T-ALL tumors; 4 mg/kg QDx3 per week, Days 18-33, compared to vehicle and Crenigacestat 6 mg/kg QD Days 18-33",inhibited the increase in tumor volume
same,tumor volume,"T-ALL tumors; 6 mg/kg QDx3 per week, Days 15-17, 22-24, 29-31, compared to vehicle and Nirogacestat 150 mg/kg QD Days 15-28",inhibited the increase in tumor volume
same,cell growth (cell viability relative to day 0),ACC83 cell line,potently inhibited cell growth
same,cell growth (cell viability relative to day 0),ACC112 cell line,potently inhibited cell growth
same,IC50,Notch3,3.4 nM
same,IC50,Notch4,2.9 nM
same,NICD1 (Western blotting and IHC),"[1]; 14 days, vs DMSO",reduction in NICD1
same,"expression levels of NOTCH downstream targets HES1, HESS and HEY1","[1]; day 14, western blot",substantially downregulated expression levels
same,NICD1 (Western blotting and IHC),"[2]; 14 days, vs DMSO",reduction in NICD1
same,"expression levels of NOTCH downstream targets HES1, HESS and HEY1","[2]; day 14, western blot",substantially downregulated expression levels
same,PK of plasma concentration compared with Phase 1 study,"[3]; 4 mg dose, week 1 and week 4",equivalent to the PK from the Phase 1 study
same,effect of inhibitors or substrates of different CYPs on the PK,"[3]; 4 mg once per week, concomitant CYP inhibitors or substrates",no significant effect
